# Results as given in ChEMBL document CHEMBL5030558, “Optimization and Evaluation of Novel Antifungal Agents for the Treatment of Fungal Infection” (J Med Chem, 2021).
# Calls of active or inactive are those of the source. The rule behind the calls is not given here.
# Assays:
# Cryptococcus neoformans [1] = test: Fungicidal activity against Cryptococcus neoformans H99 at 8 times of MIC after 4 hrs by time-kill kinetics assay; assay type: functional, organism-based
# Aspergillus fumigatus [2] = test: Antifungal activity against Aspergillus fumigatus AF293 assessed as reduction in fungal growth incubated for 48 hrs by CLSI based broth microdilution method; assay type: functional
# Cryptococcus neoformans [3] = test: Additive antifungal activity against Cryptococcus neoformans H99 assessed as FICI in presence of FCZ after 48 hrs by checker board assay; assay type: functional, organism-based
# Aspergillus fumigatus [4] = test: Synergistic antifungal activity against Aspergillus fumigatus AF293 assessed as FICI in presence of ICZ after 48 hrs by checker board assay; assay type: functional, organism-based
# [5] = Stability in human plasma assessed as parent compound remaining after 30 to 120 mins; assay type: ADME, cell-free; conditions: time 30-120 min
# [6] = target: Voltage-gated inwardly rectifying potassium channel KCNH2 (Homo sapiens, UniProt Q12809); test: Inhibition of human ERG by patch clamp assay
# Chain of Voltage-gated inwardly rectifying potassium channel KCNH2 (Q12809 whole entry): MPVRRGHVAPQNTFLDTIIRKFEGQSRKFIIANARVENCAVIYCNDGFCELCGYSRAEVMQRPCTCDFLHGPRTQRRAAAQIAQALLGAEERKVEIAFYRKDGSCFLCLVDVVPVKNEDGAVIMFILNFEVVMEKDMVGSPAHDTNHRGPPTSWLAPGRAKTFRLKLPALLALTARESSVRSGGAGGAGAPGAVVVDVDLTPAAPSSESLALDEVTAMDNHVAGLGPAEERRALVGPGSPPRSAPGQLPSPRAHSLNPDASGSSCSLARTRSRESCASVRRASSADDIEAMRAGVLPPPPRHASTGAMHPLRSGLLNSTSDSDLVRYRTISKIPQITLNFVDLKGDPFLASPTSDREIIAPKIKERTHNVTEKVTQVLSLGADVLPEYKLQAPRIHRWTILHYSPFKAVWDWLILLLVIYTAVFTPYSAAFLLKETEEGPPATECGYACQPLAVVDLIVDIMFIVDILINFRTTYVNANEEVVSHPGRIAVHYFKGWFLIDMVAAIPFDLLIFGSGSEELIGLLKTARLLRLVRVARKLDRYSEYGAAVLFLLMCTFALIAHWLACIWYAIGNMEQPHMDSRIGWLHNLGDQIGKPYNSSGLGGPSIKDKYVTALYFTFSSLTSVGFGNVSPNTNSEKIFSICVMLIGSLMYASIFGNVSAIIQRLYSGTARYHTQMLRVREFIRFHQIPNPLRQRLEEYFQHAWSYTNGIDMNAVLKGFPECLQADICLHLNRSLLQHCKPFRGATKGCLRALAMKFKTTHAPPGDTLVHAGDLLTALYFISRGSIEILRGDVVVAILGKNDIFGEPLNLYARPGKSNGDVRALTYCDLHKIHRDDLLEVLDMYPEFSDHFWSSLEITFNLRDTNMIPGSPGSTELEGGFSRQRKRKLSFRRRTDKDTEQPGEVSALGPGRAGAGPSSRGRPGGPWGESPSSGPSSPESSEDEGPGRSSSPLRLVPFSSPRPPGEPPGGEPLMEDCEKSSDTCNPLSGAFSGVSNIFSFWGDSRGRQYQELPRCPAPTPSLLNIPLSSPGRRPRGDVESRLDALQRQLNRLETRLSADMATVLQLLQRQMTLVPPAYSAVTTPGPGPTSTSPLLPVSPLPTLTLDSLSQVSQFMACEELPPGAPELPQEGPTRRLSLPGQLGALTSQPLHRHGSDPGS
# HEK293 = test: Cytotoxicity against human HEK293 cells upto 12.5 uM incubated for 24 hrs; assay type: cell-based; conditions: hek293, 24 h
# [7] = Cmax in dog at 1 mg/kg, iv; assay type: ADME, organism-based, Canis lupus familiaris; parameters: route intravenous, dose 1 mg/kg; conditions: in vivo
# [8] = Cmax in dog at 10 mg/kg, po; assay type: ADME, organism-based, Canis lupus familiaris; parameters: route oral, dose 10 mg/kg; conditions: in vivo
# Cytochrome P450 3A4 = Cytochrome P450 3A4 (Homo sapiens, UniProt P08684); test: Inhibition of CYP3A4 (unknown origin) relative to control; assay type: ADME
# Chain of Cytochrome P450 3A4 (P08684 whole entry): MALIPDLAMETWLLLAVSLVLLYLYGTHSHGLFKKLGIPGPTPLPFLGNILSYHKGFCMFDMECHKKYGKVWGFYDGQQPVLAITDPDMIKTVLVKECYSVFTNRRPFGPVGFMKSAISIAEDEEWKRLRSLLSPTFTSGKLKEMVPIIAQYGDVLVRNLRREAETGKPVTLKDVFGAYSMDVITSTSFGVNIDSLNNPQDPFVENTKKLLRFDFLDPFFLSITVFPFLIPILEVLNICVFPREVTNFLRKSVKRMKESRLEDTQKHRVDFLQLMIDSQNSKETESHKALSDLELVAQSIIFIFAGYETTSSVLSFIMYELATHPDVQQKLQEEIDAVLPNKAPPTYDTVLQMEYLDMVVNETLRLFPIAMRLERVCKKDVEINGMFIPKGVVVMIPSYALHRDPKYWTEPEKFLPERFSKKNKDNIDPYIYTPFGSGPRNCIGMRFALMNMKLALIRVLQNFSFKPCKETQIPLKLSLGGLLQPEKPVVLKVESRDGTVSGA
# Candida albicans [9] = test: Induction of morphological changes in Candida albicans ATCC SC5314 assessed as appearance of detached cytoplasm at 32 ug/ml incubated for 24 hrs by TEM analysis; assay type: functional, organism-based; conditions: dose 32.0 µg/ml
# Candida albicans [10] = test: Induction of drug resistant in Candida albicans ATCC SC5314 assessed as increase in compound IC50 at 8 to 12 times MIC; assay type: functional, organism-based
# [11] = Stability in rat plasma assessed as parent compound remaining after 30 to 120 mins; assay type: ADME, cell-free; conditions: time 30-120 min
# HaCaT = test: Cytotoxicity against human HaCaT cells upto 12.5 uM incubated for 24 hrs; assay type: cell-based
# [12] = AUC(0 to t) in Sprague-Dawley rat at 10 mg/kg, po; assay type: ADME, organism-based; parameters: dose 10 mg/kg; conditions: in vivo
# Trichophyton rubrum [13] = test: Ex vivo antifungal activity against Trichophyton rubrum KCCM60450 infected in human nail assessed as reduction in ATP level at 1 % w/w after 24 hrs; assay type: functional; parameters: scale not given: the % may be the effect or the level left
# Nakaseomyces glabratus [14] = test: Synergistic antifungal activity against Candida glabrata BG2 assessed as FICI in presence of ICZ after 48 hrs by checker board assay; assay type: functional, organism-based
# Nakaseomyces glabratus [15] = test: Additive antifungal activity against Candida glabrata BG2 assessed as assessed as FICI in presence of CSP after 48 hrs by checker board assay; assay type: functional, organism-based
# [16] = AUC(0 to t) in cynomolgus monkey at 10 mg/kg, iv; assay type: ADME, organism-based, Macaca fascicularis; parameters: dose 10 mg/kg; conditions: in vivo
# [17] = Toxicity in Sprague-Dawley rat assessed as death at 500 to 1000 mg/kg, po measured after 14 days; assay type: organism-based; conditions: in vivo, 336 h, dose 500-1000 mg/kg, time 14 day
# Cytochrome P450 2D6 = Cytochrome P450 2D6 (Homo sapiens, UniProt P10635); test: Inhibition of CYP2D6 (unknown origin) relative to control; assay type: ADME
# Chain of Cytochrome P450 2D6 (P10635 whole entry): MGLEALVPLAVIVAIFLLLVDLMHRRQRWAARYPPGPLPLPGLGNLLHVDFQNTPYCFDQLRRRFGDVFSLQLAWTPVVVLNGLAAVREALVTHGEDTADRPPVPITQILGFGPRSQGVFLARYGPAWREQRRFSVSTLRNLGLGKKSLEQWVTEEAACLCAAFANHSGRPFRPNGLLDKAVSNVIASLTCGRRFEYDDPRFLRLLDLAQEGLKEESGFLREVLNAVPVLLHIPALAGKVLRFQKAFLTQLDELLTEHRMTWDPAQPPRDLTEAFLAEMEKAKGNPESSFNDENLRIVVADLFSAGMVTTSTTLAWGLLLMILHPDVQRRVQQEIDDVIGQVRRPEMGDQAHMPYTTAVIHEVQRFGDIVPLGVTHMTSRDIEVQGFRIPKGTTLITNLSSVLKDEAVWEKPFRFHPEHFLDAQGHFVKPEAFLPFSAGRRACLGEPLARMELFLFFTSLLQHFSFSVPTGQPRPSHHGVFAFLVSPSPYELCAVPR
# [18] = Cmax in Sprague-Dawley rat at 10 mg/kg, po; assay type: ADME, organism-based; parameters: route oral, dose 10 mg/kg; conditions: in vivo
# Aspergillus fumigatus [19] = test: Synergistic antifungal activity against Aspergillus fumigatus AF293 assessed as FICI in presence of AmB after 48 hrs by checker board assay; assay type: functional, organism-based
# Candida albicans [20] = test: Synergistic antifungal activity against Candida albicans ATCC SC5314 assessed as FICI in presence of AmB after 48 hrs by checker board assay; assay type: functional, organism-based
# [21] = Effect on cell wall integrity in Cryptococcus neoformans H99 assessed as activation of Mpk1 by measuring increase in Mpk1 phosphorylation ratio at 8 ug/ml after 30 mins by immunoblot analysis (reference value: 1); assay type: functional; conditions: dose 8 µg/ml, 0.5 h
# Nakaseomyces glabratus [22] = test: Synergistic antifungal activity against Candida glabrata BG2 assessed as FICI in presence of AmB after 48 hrs by checker board assay; assay type: functional, organism-based
# Trichophyton rubrum [23] = test: Fungicidal activity against Trichophyton rubrum KCCM60450 at 4 ug/ml by time-kill kinetics assay; assay type: functional, organism-based; conditions: dose 4.0 µg/ml
# [24] = Stability in human liver microsomes assessed as parent compound remaining after 30 mins; assay type: ADME, Microsome; conditions: read-out: Stability
# Cryptococcus neoformans [25] = test: Fungicidal activity against Cryptococcus neoformans H99 at 2 times of MIC after 12 hrs by time-kill kinetics assay; assay type: functional, organism-based
# Cryptococcus neoformans [26] = test: Synergistic antifungal activity against Cryptococcus neoformans H99 assessed as FICI in presence of AmB after 48 hrs by checker board assay; assay type: functional, organism-based
# Trichophyton rubrum [27] = test: Ex vivo antifungal activity against Trichophyton rubrum KCCM60450 infected in human nail assessed as reduction in ATP level at 5 % w/w after 24 hrs; assay type: functional; parameters: scale not given: the % may be the effect or the level left
# [28] = Effect on cell wall integrity in Cryptococcus neoformans H99 assessed as increase in HXL1 activation ratio at 4 ug/ml after 2 hrs by immunoblot analysis (reference value: 1); assay type: functional; conditions: dose 4 µg/ml
# Cryptococcus neoformans [29] = test: Effect on cell wall integrity in Cryptococcus neoformans XW252 cotransfected with mCherry-Nop1-Gfp mutant assessed as increase in nuclear translocation of Crz1 at 8 ug/ml after 90 mins by fluorescence microscopic analysis; assay type: functional; conditions: dose 8.0 µg/ml
# [30] = Stability in minipig hepatocytes assessed as parent compound remaining incubated for 60 mins; assay type: ADME, cell-based, Sus scrofa domesticus, Liver; conditions: pig, read-out: Stability
# [31] = AUC(0 to t) in Sprague-Dawley rat at 2 mg/kg, iv; assay type: ADME, organism-based; parameters: dose 2 mg/kg; conditions: in vivo
# [32] = system: Trichophyton mentagrophytes; test: Fungicidal activity against Trichophyton mentagrophytes KCCM60449 at 4 times after 2 hrs by time-kill kinetics assay; assay type: functional, organism-based
# [33] = Toxicity in Sprague-Dawley rat assessed as body weight gain at 500 to 1000 mg/kg, po measured after 3 days; assay type: organism-based; conditions: in vivo, 72 h, dose 500-1000 mg/kg, time 3 day
# [34] = system: Trichophyton mentagrophytes; test: Fungicidal activity against Trichophyton mentagrophytes KCCM60449 at 4 ug/ml by time-kill kinetics assay; assay type: functional, organism-based; conditions: dose 4.0 µg/ml
# [35] = AUC(0 to t) in dog at 10 mg/kg, po; assay type: ADME, organism-based, Canis lupus familiaris; parameters: dose 10 mg/kg; conditions: in vivo
structure (smiles),measurement,setting,value
CCCC(N)C(=O)NCCc1ccc(-c2ccc(Cl)c(Cl)c2)cc1.Cl (racemic),Activity,Cryptococcus neoformans [1],Active
same,MIC,Aspergillus fumigatus [2],4 µg/mL
same,Activity,Cryptococcus neoformans [3],Active
same,Activity,Aspergillus fumigatus [4],Active
same,Stability,[5],97%
same,IC50,[6],39.5 µM
same,Activity,HEK293,Non-Toxic
same,Cmax,[7],296 ng/mL
same,Cmax,[8],4390 ng/mL
same,inhibition (INH),Cytochrome P450 3A4,43.7%
same,Activity,Candida albicans [9],Active
same,Activity,Candida albicans [10],inactive
same,Stability,[11],96.2%
same,Activity,HaCaT,Non-Toxic
same,AUC(0-t),[12],527 ng·h/mL
same,Activity,Trichophyton rubrum [13],24.68%
same,Activity,Nakaseomyces glabratus [14],inactive
same,Activity,Nakaseomyces glabratus [15],Active
same,AUC(0-t),[16],7150 ng·h/mL
same,Activity,[17],Non-Toxic
same,inhibition (INH),Cytochrome P450 2D6,88.7%
same,Cmax,[18],97.3 ng/mL
same,Activity,Aspergillus fumigatus [19],Active
same,Activity,Candida albicans [20],Active
same,Ratio,[21],2.67
same,Activity,Nakaseomyces glabratus [22],Active
same,Activity,Trichophyton rubrum [23],Active
same,remaining at 0.5 h,[24],90%
same,Activity,Cryptococcus neoformans [25],Active
same,Activity,Cryptococcus neoformans [26],Active
same,Activity,Trichophyton rubrum [27],19.92%
same,Ratio,[28],1.12
same,Activity,Cryptococcus neoformans [29],Active
same,remaining at 1 h,[30],49.6%
same,AUC(0-t),[31],265 ng·h/mL
same,Activity,[32],Active
same,Activity,[33],Non-Toxic
same,Activity,[34],Active
same,AUC(0-t),[35],30500 ng·h/mL
